Assay results from publication PMC12603272 (2025).

Test system: AT-rich palindromic dodecanucleotide dsDNA (DNA, duplex) CGCAAATTTGCG
Test: photoluminescence titration
Conditions: dsDNA stock 10 mM Tris, 0.1 mM EDTA pH 8.0, 25 °C

| binding (dsDNA (0-10 µM) into 10 µM compound in D2O) | binding (dsDNA (0-8 µM) into 8 µM compound in D2O) | Compound |
| --- | --- | --- |
| yes |  | Cn1ccc(=Nc2ccc(NC(=O)c3ccc(N=c4ccn(C)c5ccc([N+](=O)[O-])cc45)cc3)cc2)cc1 |
|  | yes | CN1CCN(c2ccc3nc(-c4ccc5nc(-c6ccc(O)cc6)[nH]c5c4)[nH]c3c2)CC1 |
